Read-outs that look alike come from different tables or passages of the source.
Legend:
ghrelin receptor (GHS-R) = details: cited from earlier work
[1] = Exploratory trial: ingredients in β-glucuronidase (enzyme)-treated plasma; type: in vivo, human; details: rikkunshito 7.5 g; for concentration at 0.5 h / concentration at 1 h / concentration at 2 h / concentration at 4 h / concentration at 8 h: plasma; for concentration at 0.5 h / concentration at 1 h / concentration at 2 h / concentration at 4 h / concentration at 8 h / Plasma concentration in enzyme-treated plasma, 0 h: β-glucuronidase-treated, mean ± S.D., n = 4; for concentration at 2 h: read-out: Plasma concentration in enzyme-treated plasma, 2 h; for concentration at 4 h: read-out: Plasma concentration in enzyme-treated plasma, 4 h; for concentration at 8 h: read-out: Plasma concentration in enzyme-treated plasma, 8 h; for Plasma concentration in enzyme-treated plasma, 0 h: 0 h (preadministration)
Description: (§1) In the first exploratory trial, 20-mL blood samples were collected from the cutaneous vein in the subjects’ forearm via a blood sampling tube that contained heparin at 0 (preadministration), 0.5, 1, 2, 4, and 8 h after a single oral administration of rikkunshito (Lot E24652). The dose of rikkunshito used in this trial was 7.5 g/day, which is the clinical daily dose, to widely explore rikkunshito-derived ingredients that enter the blood. Along with plasma, urine samples were collected at three points: between dinner and bedtime (preadministration), between 0 and 4 h after administration, and between 4 and 8 h after administration. The blood was immediately centrifuged at 1700 ×g for 10 min to obtain plasma. Plasma and urine fractions were stored at −80°C or lower until analysis.
(§2) For quantification of 30 ingredients other than atractylodin and synephrine, 25 µL of standard solution or methanol was added to 500 µL plasma or urine samples followed by mixing. Atractylenolide III or digoxin (IS) solution (50 μL) was added to the solutions followed by mixing. For urine, 400 µL of blank plasma was added to the solutions. Ammonium acetate solution (100 mM, 100 or 400 µL) was added to the solutions followed by mixing. For enzymatic treatment, plasma and urine samples were incubated with β-glucuronidase (100 units in 100 mM ammonium acetate) for 2 h at 37°C. A solid-phase cartridge (OASIS HLB, 30 mg/1cc, Waters) was conditioned with methanol and 10 mM ammonium acetate solution, and the samples were loaded onto the cartridge. The cartridge was washed water : methanol (9:1, v/v), and 1.5 mL of methanol and 30 µL of propylene glycol were added to the cartridge to elute the analytes. The mixtures were dried at 25°C under a stream of nitrogen gas. Furthermore, 100 μL of 10 mM ammonium acetate : methanol (8:2, v/v) was added to the dried samples followed by mixing and sonication. The solutions were filtered (0.22 µm) and followed by injection into the LC–MS/MS system. […] Those analytical conditions are summarized in S2 Table and S3 Table.

5-HT2CR = tested on: 5-HT2CR; parameters: method as in PMID 18439428; details: cited from earlier work
[2] = Exploratory trial: ingredients in β-glucuronidase (enzyme)-treated urine; type: in vivo, human; details: β-glucuronidase-treated, mean ± S.D., n = 4
Description: as §1, §2

butyrylcholinesterase = details: cited from earlier work

| Structure (SMILES) | Known pharmacology activities: ghrelin signal (ghrelin receptor (GHS-R)) | Cmax ([1]; human, oral, β-glucuronidase-treated plasma, four subjects, read-out: C max in enzyme-treated plasma) [ng/mL] | concentration at 0.5 h ([1]; human, oral) [ng/mL] | concentration at 1 h ([1]; human, oral) [ng/mL] | concentration at 2 h ([1]; human, oral) [ng/mL] | concentration at 4 h ([1]; human, oral) [ng/mL] | concentration at 8 h ([1]; human, oral) [ng/mL] | Plasma concentration in enzyme-treated plasma, 0 h [1] | 5-HT2CR inhibitory activity (5-HT2CR) | 5-HT2CR inhibitory activity (5-HT2CR; listed as isoliquiritigenin) | Amount in enzyme-treated urine, 0–4 h ([2]; 0–4 h after rikkunshito 7.5 g) [ng] | Amount in enzyme-treated urine, 4–8 h ([2]; 4–8 h after rikkunshito 7.5 g) [ng] | Amount in enzyme-treated urine, Pre ([2]; preadministration) [ng] | Butyrylcholinesterase inhibition (butyrylcholinesterase) | Known pharmacology activities: ghrelin metabolizing enzyme (butyrylcholinesterase) |
| --- | --- | --- | --- | --- | --- | --- | --- | --- | --- | --- | --- | --- | --- | --- | --- |
| C/C=C/C#CC#C/C=C/c1ccco1 [Atractylodin] | Ghrelin signal enhancement effect [1] |  |  |  |  |  |  |  |  |  |  |  |  |  |  |
| O=C(/C=C/c1ccc(O)cc1)c1ccc(O)cc1O [Isoliquiritigenin] |  | 0.0872 | 0.0872 ± 0.0221 | 0.0555 ± 0.0187 | 0.0606 ± 0.0774 | 0.0698 ± 0.0335 | 0.0238 ± 0.0354 | BQL | inhibits | inhibit | 3060 ± 348 | 5630 ± 2210 | 16.0 ± 17.4 |  |  |
| O=C1C[C@@H](c2ccc(O)cc2)Oc2cc(O)cc(O)c21 [Naringenin] |  |  | 0.311 ± 0.211 | 0.261 ± 0.188 | 0.351 ± 0.311 | 0.861 ± 0.749 | 0.156 ± 0.234 | BQL |  |  |  |  |  |  |  |
| C=C(CC[C@@H](C(=O)O)[C@H]1[C@H](O)C[C@@]2(C)C3=C(CC[C@]12C)[C@@]1(C)CC[C@H](OC(C)=O)C(C)(C)[C@@H]1CC3)C(C)C [Pachymic acid] |  |  |  |  |  |  |  |  |  |  |  |  |  | inhibit butyrylcholinesterase | Ghrelin metabolizing enzyme inhibitory effect [17] |
